# Experimental data as given in PubChem BioAssay (NCI).
#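 Interpolation was linear, between the two tested concentrations surrounding the appropriate level; five concentrations were tested over 48 hours in 96-well plates. TGI marks complete inhibition of growth.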
# Legend:
# Assay in all cases: NCI tumour cell line growth inhibition, 48 h
# A498 renal = test system: A498 renal
# CCRF-CEM leukemia = test system: CCRF-CEM leukemia
# LOX IMVI melanoma = test system: LOX IMVI melanoma
# MOLT-4 leukemia = test system: MOLT-4 leukemia
# NCI-H226 lung = test system: NCI-H226 lung
# NCI-H460 lung = test system: NCI-H460 lung
# OVCAR-3 ovarian = test system: OVCAR-3 ovarian
# SK-MEL-28 melanoma = test system: SK-MEL-28 melanoma
# SK-MEL-5 melanoma = test system: SK-MEL-5 melanoma
# SK-OV-3 ovarian = test system: SK-OV-3 ovarian
# UACC-257 melanoma = test system: UACC-257 melanoma
# UO-31 renal = test system: UO-31 renal
# PC-3 prostate = test system: PC-3 prostate
# T-47D breast = test system: T-47D breast
# HS 578T breast = test system: HS 578T breast
# OVCAR-8 ovarian = test system: OVCAR-8 ovarian
SMILES,TGI (A498 renal),TGI (CCRF-CEM leukemia),TGI (LOX IMVI melanoma),TGI (MOLT-4 leukemia),TGI (NCI-H226 lung),TGI (NCI-H460 lung),TGI (OVCAR-3 ovarian),TGI (SK-MEL-28 melanoma),TGI (SK-MEL-5 melanoma),TGI (SK-OV-3 ovarian),TGI (UACC-257 melanoma),TGI (UO-31 renal),TGI (PC-3 prostate),TGI (T-47D breast),TGI (HS 578T breast),TGI (OVCAR-8 ovarian)
C=C1Cc2cc(OC)c(OC)c(OC)c2-c2ccc(SC)c(=O)cc21,0.421 µM,6.85 µM,0.343 µM,25.2 µM,0.188 µM,< 0.035 µM,< 0.01 µM,7.88 µM,13.3 µM,5.15 µM,7.62 µM,6.96 µM,,,,
CCCCC(=O)Nc1ccc2c(C)cc(-c3ccc(-c4cc(-c5ccc(C)cc5)cc(-c5ccc(-c6cc(C)c7ccc(NC(=O)CCCC)nc7n6)cc5)n4)cc3)nc2n1,> 100 µM,> 100 µM,,> 100 µM,,> 100 µM,> 100 µM,> 100 µM,> 100 µM,> 100 µM,> 100 µM,> 100 µM,> 100 µM,> 100 µM,,
N#Cc1ccc(C2NN=CC23C(=O)c2ccccc2OC3c2ccccc2)cc1 (stereo unspecified),> 100 µM,> 100 µM,> 100 µM,> 100 µM,> 100 µM,> 100 µM,> 100 µM,> 100 µM,74.8 µM,> 100 µM,> 100 µM,96.8 µM,> 100 µM,,> 100 µM,> 100 µM
COC(=O)C1(C)NCCc2c1[nH]c1ccccc21 (stereo unspecified),> 100 µM,> 100 µM,,> 100 µM,,,> 100 µM,> 100 µM,> 100 µM,> 100 µM,,> 100 µM,,,,> 100 µM
CCCN(CCC)C1=Nc2ccccc2-n2cnnc2C1,,> 100 µM,> 100 µM,> 100 µM,> 100 µM,> 100 µM,> 100 µM,> 100 µM,> 100 µM,,,> 100 µM,,,,> 100 µM
NC(Cc1ccc(B(O)O)cc1)C(=O)NC(CO)CO (stereo unspecified),,> 100 µM,> 100 µM,> 100 µM,> 100 µM,> 100 µM,> 100 µM,> 100 µM,> 100 µM,> 100 µM,> 100 µM,> 100 µM,> 100 µM,,> 100 µM,> 100 µM
Clc1c2ccccc2nc2c1[nH]c1ccccc12,> 100 µM,> 100 µM,> 100 µM,9.61 µM,,> 100 µM,> 100 µM,> 100 µM,21.3 µM,,> 100 µM,> 100 µM,> 100 µM,> 100 µM,> 100 µM,> 100 µM
CCOC(=O)c1cc(C2CCN(Cc3ccccc3)C2=S)c(C(=O)C=[N+]=[N-])[nH]1 (stereo unspecified),> 100 µM,> 100 µM,,> 100 µM,,64.1 µM,45.1 µM,51.5 µM,34.5 µM,> 100 µM,71.4 µM,57.5 µM,> 100 µM,,> 100 µM,> 100 µM
O=c1ccnc2ccc3n[nH][nH]c3c12,> 100 µM,> 100 µM,,> 100 µM,,> 100 µM,> 100 µM,> 100 µM,> 100 µM,> 100 µM,> 100 µM,,,,,> 100 µM
O=c1c2ccccc2[nH]c2c(Cl)cc(Cl)c(N3CCCCC3)c12,81 µM,> 10 µM,> 100 µM,> 100 µM,62 µM,,> 100 µM,> 100 µM,> 100 µM,> 100 µM,> 100 µM,55.5 µM,> 100 µM,> 100 µM,,> 100 µM
CN(C(=O)c1ccco1)C(=S)N1CCN(c2ccccn2)CC1,,> 100 µM,> 100 µM,> 100 µM,> 100 µM,> 100 µM,> 100 µM,> 100 µM,> 100 µM,> 100 µM,> 100 µM,> 100 µM,,,,> 100 µM
CN(C)c1ccc(/C=C/c2cc(-c3ccccc3)[n+](C)n2-c2ccccc2)cc1,14.5 µM,,14.2 µM,3.41 µM,71 µM,> 100 µM,17.2 µM,> 34.6 µM,0.522 µM,4.33 µM,26.8 µM,6.66 µM,3.27 µM,,0.248 µM,
COC(=O)C1C=CCON2CCc3c(n(S(=O)(=O)c4ccccc4)c4ccccc34)C12 (stereo unspecified),> 100 µM,> 71.1 µM,> 60.9 µM,> 71 µM,> 91.1 µM,> 92.3 µM,> 100 µM,> 100 µM,> 58.4 µM,> 85.7 µM,> 90.3 µM,> 100 µM,,,,> 100 µM
O=C1NC(=S)NC(=O)C1=C/C=C/c1ccc([N+](=O)[O-])cc1,,,22.6 µM,16.6 µM,44.3 µM,54.3 µM,29.1 µM,10.4 µM,42.5 µM,36 µM,30.8 µM,33.5 µM,32.2 µM,71.4 µM,44.6 µM,47.6 µM
CCOC(=O)C(CCc1ncnc2c1ncn2Cc1ccccc1)(CCc1ncnc2c1ncn2Cc1ccccc1)C(=O)OCC,> 100 µM,,> 100 µM,> 100 µM,> 100 µM,> 100 µM,> 100 µM,> 100 µM,> 100 µM,,> 100 µM,10.9 µM,> 100 µM,,> 100 µM,> 100 µM
O=C(NCCCN1CCN(CCCNC(=O)Nc2cccc3ccccc23)CC1)Nc1cccc2ccccc12,30.5 µM,71.3 µM,20.7 µM,,,,26.5 µM,28.7 µM,30.2 µM,,25.9 µM,31.2 µM,21.5 µM,32.1 µM,49.1 µM,38.7 µM
COc1cc(C2c3c(ccc4ccccc34)C(=O)C3CCC(=O)N32)cc(OC)c1O (stereo unspecified),> 25 µM,> 25 µM,,> 25 µM,> 25 µM,> 25 µM,> 25 µM,> 25 µM,,> 25 µM,> 25 µM,> 25 µM,> 25 µM,> 25 µM,,> 25 µM
S=C=NC1CCC(c2cc3ccccc3s2)(N2CCCCC2)CC1 (stereo unspecified),5.1 µM,2.5 µM,3.03 µM,1.01 µM,,3.54 µM,4.34 µM,3.39 µM,2.94 µM,4.59 µM,3.54 µM,3.66 µM,,25.3 µM,4.73 µM,
